According to patent publication US20230077704A1, “APPLICATION OF NITAZOXANIDE AND ACTIVE FORM THEREOF, TIZOXANIDE, IN TREATMENT OF SARS-COV-2 INFECTION” (priority 2020, published 2023):
Entries after “also recorded” stand apart in the source; their conditions may differ. Where two headings read alike, the source gives them in different places.

How the values were obtained:
Vero-E6 cells = assay: Cytotoxicity test of drugs, CCK-8 kit; assay type: cell-based; details: 48 hours; for Cell viability (% of vehicle control): Vero-E6 cells
Procedure: The cytotoxicity test of drugs was carried out by using CCK-8 kit (Beyotime). Specific steps were as follows:
(1) 1×10^4 Vero-E6 cells (ATCC) were inoculated in a 96-well plate and cultured at 37° C. for 8 hours.
(2) The drug was diluted with DMSO to an appropriate concentration of mother solution, and then diluted with MEM (purchased from Gibco company, Catalog No. 10370021) medium containing 2% FBS (purchased from Gibco company, Catalog No. 16000044) to the same concentration as that for the drug treatment. The original medium in the 96-well plate was discarded, 100 μL of the drug-containing MEM medium was taken and added to the cells, and three replicate wells were set for each concentration. A vehicle control (adding DMSO and medium to cells in wells, without adding drug) and a blank control (adding DMSO and medium to the wells, without cells) were set up. After the drug was added, the cells were cultured at 37° C. for 48 hours.
(3) 20 μL of CCK-8 solution (Beyotime) was added to the well to be tested, mixed gently without generating bubbles, and cultured subsequently at 37° C. for 2 hours. OD450 was read on a microplate reader (purchased from Molecular Devices, model: SpectraMax M5), and the cell viability was calculated:
Cell viability (%)=(A(drug treatment group)−A(blank control))/(A(vehicle control)−A(blank control))×100%
Wherein, A was the reading of the microplate reader.

rotavirus = details: clinical trials; cited from earlier work
[1] = tested on: SARS-CoV-2 (2019-nCoV) virus; assay type: cell-based; details: for Copy number of virus genome: 100TCID50, 48 hours, supernatant
influenza = details: 600 mg twice daily for five days, adults and adolescents; cited from earlier work

Compound: CC(=O)Oc1ccccc1C(=O)Nc1ncc([N+](=O)[O-])s1 [nitazoxanide, 2-(acetyloxy)-N-(5-nitro-2-thiazolyl) benzamide]
- Cell viability (% of vehicle control) (Vero-E6 cells; 0.14 μM): 98.78 % of vehicle control
- Cell viability (% of vehicle control) (Vero-E6 cells; 0.41 μM): 101.40 % of vehicle control
- Cell viability (% of vehicle control) (Vero-E6 cells; 1.23 μM): 98.54 % of vehicle control
- Cell viability (% of vehicle control) (Vero-E6 cells; 3.70 μM): 96.47 % of vehicle control
- Cell viability (% of vehicle control) (Vero-E6 cells; 11.11 μM): 96.03 % of vehicle control
- Cell viability (% of vehicle control) (Vero-E6 cells; 33.33 μM): 93.58 % of vehicle control
- Cell viability (% of vehicle control) (Vero-E6 cells; 100 μM): 93.29 % of vehicle control
- Toxic effect on the cells (cytotoxicity) (Vero-E6 cells; all test concentrations): no cytotoxicity was observed; also recorded: no toxic effect on the cells
- Treatment of diarrhea in children caused by rotavirus infection (rotavirus): can effectively treat diarrhea
- Copy number of virus genome ([1]; 0.14 μM, Vero E6 cells): 820470664.5
- Copy number of virus genome ([1]; 0.41 μM, Vero E6 cells): 363337006
- Copy number of virus genome ([1]; 1.23 μM, Vero E6 cells): 76022948.5
- Copy number of virus genome ([1]; 3.70 μM, Vero E6 cells): 21027512.5
- Copy number of virus genome ([1]; 11.11 μM, Vero E6 cells): 5389366.5
- Copy number of virus genome ([1]; 33.33 μM, Vero E6 cells): 1424671.5
- Copy number of virus genome ([1]; 100 μM, Vero E6 cells): 1220444.5
- Viral RNA load in the cells ([1]; Vero E6 cells, 48 hours after infection by SARS-CoV-2, FIG. 1(a)): can reduce the viral RNA load
- Inhibition of replication of SARS-CoV-2 virus genome in the infected supernatant ([1]; at concentrations of 100 μM, 33 μM, 11.1 μM and 3.7 μM): could effectively inhibit the replication
- Duration of common influenza (influenza): reduced the duration of common influenza
